Reference: the CheMixHub ionic liquid set

Experiment: xn = mol fraction of the nth substance listed

CCOS(=O)(=O)[O-].CC[n+]1ccn(C)c1 + O=C([O-])CC(O)(CC(=O)[O-])C(=O)[O-].[K+].[K+].[K+] + O
viscosity [mPa·s], 101.3 kPa
Conditions | 293.15 K | 298.15 K | 303.15 K | 308.15 K | 313.15 K
x2 = 0, x1 = 0.001795 | 1.073 | 0.96 | 0.845 | 0.751 | 0.679
x2 = 0, x1 = 0.002698 | 1.107 | 0.987 | 0.876 | 0.788 | 0.709
x2 = 0, x1 = 0.003589 | 1.136 | 1.016 | 0.899 | 0.811 | 0.727

CCOS(=O)(=O)[O-].CC[n+]1ccn(C)c1 + O=C([O-])c1ccccc1.[Na+] + O
viscosity [mPa·s], 101.3 kPa
Conditions | 293.15 K | 298.15 K | 303.15 K | 308.15 K | 313.15 K
x2 = 0, x1 = 0.001795 | 1.073 | 0.96 | 0.845 | 0.751 | 0.679
x2 = 0, x1 = 0.002698 | 1.107 | 0.987 | 0.876 | 0.788 | 0.709
x2 = 0, x1 = 0.003589 | 1.136 | 1.016 | 0.899 | 0.811 | 0.727

CCOS(=O)(=O)[O-].CC[n+]1ccn(C)c1 + OCC(O)CO
100 kPa
Conditions | electrical conductivity [S/m] | viscosity [mPa·s]
298.15 K, x1 = 0.002 | 0.000368 | –
298.15 K, x1 = 0.004 | 0.00065 | –
298.15 K, x1 = 0.012 | 0.00204 | –
298.15 K, x2 = 0.123 | 0.396 | 89.1
298.15 K, x2 = 0.601 | 0.248 | 91.5
298.15 K, x2 = 0.98 | 0.00333 | –
303.15 K, x2 = 0.264 | – | 65
303.15 K, x2 = 0.5 | – | 63.7
303.15 K, x2 = 0.98 | – | 494
313.15 K, x1 = 0.002 | 0.00114 | 279.6
313.15 K, x1 = 0.004 | 0.002 | 274.6
313.15 K, x2 = 0.958 | 0.0222 | 199

[Cl-].c1c[nH+]c[nH]1 + OCC(O)CO
100 kPa
Conditions | viscosity [mPa·s]
313.2 K, x1 = 0.1667 | 306
313.2 K, x1 = 0.3333 | 154.5
323.2 K, x1 = 0.25 | 107
323.2 K, x1 = 0.3333 | 84
333.2 K, x1 = 0.5 | 100.1
343.2 K, x1 = 0.5 | 50.6

CCOS(=O)(=O)[O-].CC[n+]1ccn(C)c1 + OCCN(CCO)CCO
Conditions | viscosity [mPa·s]
303.15 K, 100 kPa, x2 = 0 | 75.7
